Assay results: BindingDB's records for doi:10.1021/ml400370w (The Scripps Research Institute, 2014)

Test: Antagonist activity against CCR5 receptor in human TZM-bl cells assessed as inhibition of HIV-1 JR-FL-induced cell-cell fusion between viral envelope protein expressing human HEK293 cells to TZM-bl cells after 48 hrs by luciferase reporter gene assay

| SMILES | IC50 [nM] |
| --- | --- |
| Cc1nnc(CCCCCCCCCCn2cc(COCCOCCOCCOCCOCc3ccc(C(=O)NCCCNC(=O)OC(C)(C)C)cc3)nn2)n1C1CC2CCC(C1)N2CC[C@H](NC(=O)C1CCC(F)(F)CC1)c1ccccc1 (stereo partly specified) | 3 |
| Cc1nnc(CCCCCCCCCCn2cc(COCCOCCOCCOCCOCc3ccc(C(=O)N4CCC4=O)cc3)nn2)n1C1CC2CCC(C1)N2CC[C@H](NC(=O)C1CCC(F)(F)CC1)c1ccccc1 (stereo partly specified) | 2.6 |
| Cc1nnc(C(C)C)n1C1CC2CCC(C1)N2CC[C@H](NC(=O)CCCCCCCCCCn1cc(COCCOCCOCCOCCOCc2ccc(C(=O)N3CCC3=O)cc2)nn1)c1ccccc1 (stereo partly specified) | 27 |
| Cc1nnc(CCCCCCCCCCN=[N+]=[N-])n1C1CC2CCC(C1)N2CC[C@H](NC(=O)C1CCC(F)(F)CC1)c1ccccc1 (stereo partly specified) | 0.96 |
| Cc1nnc(C(C)C)n1C1CC2CCC(C1)N2CC[C@H](NC(=O)COCCOCCOCCN=[N+]=[N-])c1ccccc1 (stereo partly specified) | > 1000 |
| Cc1nnc(C(C)C)n1C1CC2CCC(C1)N2CC[C@H](NC(=O)CCCCCCCCCCN=[N+]=[N-])c1ccccc1 (stereo partly specified) | 360 |
